{"source": "patent US12351574B2", "about": "“Selective ligands for modulation of GIRK channels” (Northeastern University, priority 2018, dated 2025)", "target": "T1, GIRK1/2 (UniProt P48542+P48549)", "T1 sequence (P48549 1-501)": "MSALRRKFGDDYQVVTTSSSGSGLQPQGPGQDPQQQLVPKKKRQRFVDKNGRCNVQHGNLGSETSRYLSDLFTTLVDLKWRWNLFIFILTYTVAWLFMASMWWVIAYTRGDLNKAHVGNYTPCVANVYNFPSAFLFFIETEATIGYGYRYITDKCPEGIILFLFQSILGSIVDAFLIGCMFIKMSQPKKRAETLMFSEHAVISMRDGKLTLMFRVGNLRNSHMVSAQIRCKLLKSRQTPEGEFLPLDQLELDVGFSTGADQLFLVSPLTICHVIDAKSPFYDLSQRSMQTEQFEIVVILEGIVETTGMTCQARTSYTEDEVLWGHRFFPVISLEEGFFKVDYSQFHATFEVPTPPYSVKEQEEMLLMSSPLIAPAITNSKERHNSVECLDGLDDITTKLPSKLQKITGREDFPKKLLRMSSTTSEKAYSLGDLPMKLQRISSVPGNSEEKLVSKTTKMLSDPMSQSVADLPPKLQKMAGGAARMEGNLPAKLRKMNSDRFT", "T1 sequence (P48542 1-425)": "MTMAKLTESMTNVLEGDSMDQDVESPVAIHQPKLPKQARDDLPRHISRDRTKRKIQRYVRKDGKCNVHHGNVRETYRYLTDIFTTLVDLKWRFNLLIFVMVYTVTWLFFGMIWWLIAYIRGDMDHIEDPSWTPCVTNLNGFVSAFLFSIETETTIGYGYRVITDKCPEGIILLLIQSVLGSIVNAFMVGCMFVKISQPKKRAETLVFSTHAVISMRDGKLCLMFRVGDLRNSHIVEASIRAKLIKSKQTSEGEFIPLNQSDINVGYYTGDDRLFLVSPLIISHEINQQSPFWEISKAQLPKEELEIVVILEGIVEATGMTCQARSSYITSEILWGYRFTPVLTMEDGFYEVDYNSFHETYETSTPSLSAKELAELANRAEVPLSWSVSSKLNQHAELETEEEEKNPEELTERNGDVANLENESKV", "assay": "concentration-response, whole-cell patch clamp in HEK-293 cells expressing GIRK1/2", "type": "cell-based, human GIRK1, mouse GIRK2", "set-up": "expressed in transfected cells", "details": "FIGS. 5A-5C", "procedure": "Culture of HEK293 cells: HEK293-T cells were obtained from ATCC and maintained in DMEM medium supplemented with 10% FBS and 1% penicillin and streptomycin (Hyclone). For patch-clamp studies, cells were seeded on glass coverslips and transfected 24-hours later using a polyethylenimine solution (1 mg/ml) at a ratio of 8 μl per μg of DNA. To study GIRK-currents, cells were transfected with 0.75 μg each of plasmids encoding GIRK1, GIRK2 or GIRK4 as indicated. In the optogenetic experiments, cells were co-transfected with plasmids encoding 5-ptaseOCRL and CIBN-CAAX, as previously described. 5-ptaseOCRL and CIBN-CAAX were a kind gift from the DeCamilli lab, Yale CT. All experiments were performed at room temperature 24-36 hours post transfection.\nPatch-clamp recording: Whole-cell currents were recorded with an Axopatch 200B amplifier (Molecular Devices) controlled via a USB-interface (National Instruments) using WinWCP software (University of Strathclyde). […] The barium-sensitive component of the current, observed when cells were perfused with the high-K^+ buffer, was analyzed and was determined by perfusing 5 mM BaCl2 in the high-K^+ buffer at the end of each experiment. […]\nPatch-clamp recording: Whole-cell currents were recorded with an Axopatch 200B amplifier (Molecular Devices) controlled via a USB-interface (National Instruments) using WinWCP software (University of Strathclyde). […]", "data": [{"smiles": "Cc1cc(NC(=O)Nc2ccc(Br)s2)n(-c2ccccc2)n1", "note": "[GAT1508, 1-(5-bromothiophen-2-yl)-3-(3-methyl-1-phenyl-1H-pyrazol-5-yl)urea]", "values": [{"measurement": "potency and efficacy compared to ML297 or GAT1521 (in words)", "result": "highest potency and efficacy"}]}]}
